From US6472526B1, “Imidazole derivatives having an inhibitory activity for farnesyl transferase and process for preparation thereof” (LG Chemical Ltd., priority 1997, dated 2002)
pIC50: −log10 of the molar value.

Experiments:
Ras farnesyl transferase [1] = target: T1, Ras farnesyl transferase (Homo sapiens, UniProt P49354+P49356); test: In vitro inhibitory activity for Ras farnesyl transferase, H-Ras substrate; format: biochemical; conditions: recombinant farnesyl transferase 4.5 nM, Ras substrate protein 1.5 μM, tritium-farnesylpyrophosphate 0.15 μM, 30 minutes at 37° C.; read-out: H-Ras IC50
T1 construct: made in house

Ras farnesyl transferase [2] = target: T1, Ras farnesyl transferase; test: In vitro inhibitory activity for Ras farnesyl transferase, K-Ras substrate; format: biochemical; conditions: in vitro farnesyl transferase assay, K-Ras; read-out: K-Ras IC50
Ras farnesyl transferase [3] = target: T2, Ras farnesyl transferase (Rattus norvegicus, UniProt Q02293+Q04631); test: In vivo (cellular) inhibitory activity for Ras farnesyl transferase, Rat2 cell line which expresses C-Harvey-Ras protein; format: cell-based; conditions: Rat2 cell line expressing C-Harvey-Ras; concentration inhibiting 50% of farnesyl bonding of Ras protein; read-out: H-Ras CIC50
T2 construct: endogenous in cells; host or cells: Rat2 fibroblasts transformed with H-Ras or with an H-Ras/K-Ras C-terminus fusion
In short: (§1)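 Farnesylated versus unfarnesylated Ras bands were measured by autoradiography after Y13-259 immunoprecipitation and SDS-PAGE, giving CIC50 as 50% inhibition of farnesylation. Rat2 cells expressing H-Ras or an H-Ras fusion with K-Ras polybasic C-terminus got compound (1% DMSO), then [35S]methionine from 4 h onward for 20 h.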

Ras farnesyl transferase [4] = target: T2, Ras farnesyl transferase; test: In vivo (cellular) inhibitory activity for Ras farnesyl transferase, Rat2 cell line transformed with fused protein of H-Ras substituted with polybasic lysine domain at C-terminus of K-Ras; format: cell-based; conditions: Rat2 cell line transformed with H-Ras fused with polybasic lysine domain of K-Ras C-terminus; concentration inhibiting 50% of farnesyl bonding; read-out: K-Ras CIC50
In short: as §1

SMILES | pIC50 (Ras farnesyl transferase [1]) | pIC50 (Ras farnesyl transferase [2]) | pIC50 (Ras farnesyl transferase [3]) | pIC50 (Ras farnesyl transferase [4])
COc1ccc(CCn2cncc2Cn2cc(C(=O)N3CCN(C)CC3)c(-c3cccc4ccccc34)c2)cc1 [Compound 20, 1-[1-(4-Methoxy)phenethyl-1H-imidazol-5-yl]methyl-3-[4-methylpiperazin-1-yl]carbonyl-4-(naphthalen-1-yl)-1H-pyrrole] | 9.00 | 8.70 | 7.70 | 4.30 to 5.00
COc1ccc(Cn2cncc2Cn2cc(C(=O)N3CCN(C)CC3)c(-c3cccc4ccccc34)c2)cc1 [Compound 130, 1-[1-(4-Methoxybenzyl)-1H-imidazol-5-yl] methyl-3-(4-methylpiperazin-1-yl)carbonyl-4-(naphthalen-1-yl)-1H-pyrrole] | 8.70 | 8.52 | 7.60 | 4.30 to 5.00
CSCc1cccc(C(=O)c2cn(Cc3c[nH]cn3)cc2-c2cccc3ccccc23)c1 [Compound 64] | 6.80 | 5.00 to 7.00 | 4.30 to 6.00 | 4.00 to 5.00
CN1CCN(C(=O)c2cn(Cc3cncn3Cc3ccccc3Cl)cc2-c2cccc3ccccc23)CC1 [Compound 133, 1-[1-(2-Chlorobenzyl)-1H-imidazol-5-yl]methyl-3-(4-methylpiperazin-1-yl)carbonyl-4-(naphthalen-1-yl)-1H-pyrrole] | 9.19 | 8.70 | 7.60 | 4.30 to 5.00
COCCN(C)C(=O)c1cn(Cc2cncn2Cc2ccc3ccccc3c2)cc1-c1cccc2ccccc12 [Compound 29, 3-[N-(2-Methoxyethyl)-N-methyl]carbamoyl-4-(naphthalen-1-yl)-1-[1-(naphthalen-2-yl)methyl-1H-imidazol-5-yl]methyl-1H-pyrrole] | 8.70 | 8.40 | 8.00 | 4.70 to 5.00
Cc1cccc(C(=O)c2cn(Cc3c[nH]cn3)cc2-c2cccc3ccccc23)c1 [Compound 51] | 6.57 | 5.00 to 7.00 | 4.30 to 6.00 | 4.00 to 5.00
